# Data reported in the kinase profiling compilation of Christmann-Franck et al. (2016).
# How the values were obtained:
# Assay in all cases: KINOMEscan competition binding
# Details in all cases: compound 10.0 µM
# ROCK1 (human) = ROCK1 (human) (UniProt Q13464)
# PRKCI (human) = PRKCI (human) (UniProt P41743)
# GSK3B (human) = GSK3B (human) (UniProt P49841)
# AURKA (human) = AURKA (human) (UniProt O14965)
# CHEK2 (human) = CHEK2 (human) (UniProt O96017)
# PAK1 (human) = PAK1 (human) (UniProt Q13153)
# SRC (human) = SRC (human) (UniProt P12931)
# ANKK1 (human) = ANKK1 (human) (UniProt Q8NFD2)
# Sequence of ANKK1 (human) (Q8NFD2 whole entry, looked up): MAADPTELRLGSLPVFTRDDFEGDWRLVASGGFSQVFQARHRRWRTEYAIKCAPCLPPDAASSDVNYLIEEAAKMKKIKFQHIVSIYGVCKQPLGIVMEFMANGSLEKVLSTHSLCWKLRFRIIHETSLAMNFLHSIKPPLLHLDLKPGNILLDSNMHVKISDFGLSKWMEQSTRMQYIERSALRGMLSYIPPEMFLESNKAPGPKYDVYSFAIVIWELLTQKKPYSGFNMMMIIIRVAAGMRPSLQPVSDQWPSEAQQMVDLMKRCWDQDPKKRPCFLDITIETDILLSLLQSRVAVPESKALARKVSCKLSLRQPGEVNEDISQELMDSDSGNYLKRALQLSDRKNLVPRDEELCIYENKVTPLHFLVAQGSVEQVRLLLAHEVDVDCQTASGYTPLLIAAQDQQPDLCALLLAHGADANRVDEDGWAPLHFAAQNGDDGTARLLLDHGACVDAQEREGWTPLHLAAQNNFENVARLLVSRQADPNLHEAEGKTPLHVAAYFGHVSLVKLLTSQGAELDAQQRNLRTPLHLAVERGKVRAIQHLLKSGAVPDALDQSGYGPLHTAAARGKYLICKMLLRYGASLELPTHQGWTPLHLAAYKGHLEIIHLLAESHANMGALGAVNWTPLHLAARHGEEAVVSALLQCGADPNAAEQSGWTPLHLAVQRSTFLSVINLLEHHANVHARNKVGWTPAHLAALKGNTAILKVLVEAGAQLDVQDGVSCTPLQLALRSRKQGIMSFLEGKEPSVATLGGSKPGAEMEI
# PIP5K1C (human) = PIP5K1C (human) (UniProt O60331)
# SIK1 (human) = SIK1 (human) (UniProt P57059)
# MAP4K3 (human) = MAP4K3 (human) (UniProt Q8IVH8)
# PLK2 (human) = PLK2 (human) (UniProt Q9NYY3)
# STK17B (human) = STK17B (human) (UniProt O94768)
# MERTK (human) = MERTK (human) (UniProt Q12866)
# ULK3 (human) = ULK3 (human) (UniProt Q6PHR2)
# STK24 (human) = STK24 (human) (UniProt Q9Y6E0)
# MATK (human) = MATK (human) (UniProt P42679)
# Sequence of MATK (human) (P42679 whole entry, looked up): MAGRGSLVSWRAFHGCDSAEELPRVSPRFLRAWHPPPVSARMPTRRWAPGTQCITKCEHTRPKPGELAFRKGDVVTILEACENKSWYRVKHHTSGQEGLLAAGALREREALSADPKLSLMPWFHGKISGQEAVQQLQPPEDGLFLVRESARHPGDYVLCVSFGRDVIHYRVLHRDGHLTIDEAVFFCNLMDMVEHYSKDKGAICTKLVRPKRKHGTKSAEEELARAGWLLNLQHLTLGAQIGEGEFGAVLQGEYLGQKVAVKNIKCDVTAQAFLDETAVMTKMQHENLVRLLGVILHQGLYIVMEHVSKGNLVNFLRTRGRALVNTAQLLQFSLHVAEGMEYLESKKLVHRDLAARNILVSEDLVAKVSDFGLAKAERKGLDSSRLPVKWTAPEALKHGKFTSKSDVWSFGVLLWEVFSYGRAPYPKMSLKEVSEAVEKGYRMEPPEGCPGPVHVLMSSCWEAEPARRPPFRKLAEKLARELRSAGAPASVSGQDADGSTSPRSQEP
# YES1 (human) = YES1 (human) (UniProt P07947)
# PIK3CG (human) = PIK3CG (human) (UniProt P48736)
# Sequence of PIK3CG (human) (P48736 whole entry, looked up): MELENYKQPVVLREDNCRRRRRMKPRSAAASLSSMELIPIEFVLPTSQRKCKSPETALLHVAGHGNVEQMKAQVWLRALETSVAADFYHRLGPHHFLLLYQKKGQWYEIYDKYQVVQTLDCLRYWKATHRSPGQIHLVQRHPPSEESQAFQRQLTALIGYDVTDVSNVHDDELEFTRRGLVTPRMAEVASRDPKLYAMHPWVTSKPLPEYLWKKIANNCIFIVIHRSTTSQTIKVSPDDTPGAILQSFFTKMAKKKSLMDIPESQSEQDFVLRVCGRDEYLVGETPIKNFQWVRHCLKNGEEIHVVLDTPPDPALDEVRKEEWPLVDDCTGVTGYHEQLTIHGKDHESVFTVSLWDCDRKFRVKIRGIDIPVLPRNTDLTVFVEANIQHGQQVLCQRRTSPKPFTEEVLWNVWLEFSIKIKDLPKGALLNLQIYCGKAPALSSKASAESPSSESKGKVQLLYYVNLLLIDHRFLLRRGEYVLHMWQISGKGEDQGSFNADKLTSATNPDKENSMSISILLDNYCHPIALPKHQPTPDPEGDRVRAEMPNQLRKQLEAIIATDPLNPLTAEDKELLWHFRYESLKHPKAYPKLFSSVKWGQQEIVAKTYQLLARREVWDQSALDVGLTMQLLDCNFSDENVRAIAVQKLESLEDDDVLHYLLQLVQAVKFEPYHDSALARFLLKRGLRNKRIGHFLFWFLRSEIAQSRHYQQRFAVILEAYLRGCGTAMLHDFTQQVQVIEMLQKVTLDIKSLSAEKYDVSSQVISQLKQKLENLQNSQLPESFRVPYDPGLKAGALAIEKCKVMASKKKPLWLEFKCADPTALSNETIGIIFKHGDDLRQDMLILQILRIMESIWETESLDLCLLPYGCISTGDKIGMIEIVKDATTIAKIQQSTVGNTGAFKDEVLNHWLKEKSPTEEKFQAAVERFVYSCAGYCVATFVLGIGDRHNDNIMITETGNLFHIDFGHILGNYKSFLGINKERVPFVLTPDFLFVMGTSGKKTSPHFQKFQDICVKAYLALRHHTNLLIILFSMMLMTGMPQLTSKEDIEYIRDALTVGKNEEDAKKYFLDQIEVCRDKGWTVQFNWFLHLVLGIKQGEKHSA
# MYLK2 (human) = MYLK2 (human) (UniProt Q9H1R3)
# GAK (human) = GAK (human) (UniProt O14976)
# CaMK1 (human) = CaMK1 (human) (UniProt Q14012)
# MAP3K15 (human) = MAP3K15 (human) (UniProt Q6ZN16)
# SYK (human) = SYK (human) (UniProt P43405)
# STK17A (human) = STK17A (human) (UniProt Q9UEE5)
# CSF1R (human) = CSF1R (human) (UniProt P07333)
# MAPKAPK2 (human) = MAPKAPK2 (human) (UniProt P49137)
# CRK2 (P.falciparum) = CRK2 (P.falciparum) (UniProt P61075)
# RPS6KA1 KD2 (human) = RPS6KA1 KD2 (human) (UniProt Q15418)
# MAP2K1 (human) = MAP2K1 (human) (UniProt Q02750)
# Sequence of MAP2K1 (human) (Q02750 whole entry, looked up): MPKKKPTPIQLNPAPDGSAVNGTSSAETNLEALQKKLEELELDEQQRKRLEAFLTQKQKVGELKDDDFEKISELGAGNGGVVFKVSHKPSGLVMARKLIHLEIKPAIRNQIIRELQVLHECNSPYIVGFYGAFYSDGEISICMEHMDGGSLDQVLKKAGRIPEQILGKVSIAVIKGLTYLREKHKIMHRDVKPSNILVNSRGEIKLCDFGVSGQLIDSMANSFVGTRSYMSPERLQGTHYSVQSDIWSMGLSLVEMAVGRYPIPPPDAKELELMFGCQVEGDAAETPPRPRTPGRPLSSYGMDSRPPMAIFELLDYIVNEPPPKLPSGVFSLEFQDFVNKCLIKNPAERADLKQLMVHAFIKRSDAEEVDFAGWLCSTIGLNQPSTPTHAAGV
# EIF2AK2 (human) = EIF2AK2 (human) (UniProt P19525)
# KIT (human) = KIT (human) (UniProt P10721)
# CSNK2A2 (human) = CSNK2A2 (human) (UniProt P19784)
# Sequence of CSNK2A2 (human) (P19784 whole entry, looked up): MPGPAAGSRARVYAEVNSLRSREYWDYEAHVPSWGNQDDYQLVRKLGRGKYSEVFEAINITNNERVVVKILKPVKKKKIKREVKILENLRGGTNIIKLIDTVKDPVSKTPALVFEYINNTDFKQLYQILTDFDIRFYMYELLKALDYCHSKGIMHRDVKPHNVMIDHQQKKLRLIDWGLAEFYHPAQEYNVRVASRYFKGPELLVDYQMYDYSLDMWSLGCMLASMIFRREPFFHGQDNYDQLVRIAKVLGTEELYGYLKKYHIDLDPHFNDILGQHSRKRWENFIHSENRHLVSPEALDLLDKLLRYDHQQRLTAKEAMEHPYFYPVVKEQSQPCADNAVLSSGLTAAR
# MAP2K7 (human) = MAP2K7 (human) (UniProt O14733)
# Sequence of MAP2K7 (human) (O14733 whole entry, looked up): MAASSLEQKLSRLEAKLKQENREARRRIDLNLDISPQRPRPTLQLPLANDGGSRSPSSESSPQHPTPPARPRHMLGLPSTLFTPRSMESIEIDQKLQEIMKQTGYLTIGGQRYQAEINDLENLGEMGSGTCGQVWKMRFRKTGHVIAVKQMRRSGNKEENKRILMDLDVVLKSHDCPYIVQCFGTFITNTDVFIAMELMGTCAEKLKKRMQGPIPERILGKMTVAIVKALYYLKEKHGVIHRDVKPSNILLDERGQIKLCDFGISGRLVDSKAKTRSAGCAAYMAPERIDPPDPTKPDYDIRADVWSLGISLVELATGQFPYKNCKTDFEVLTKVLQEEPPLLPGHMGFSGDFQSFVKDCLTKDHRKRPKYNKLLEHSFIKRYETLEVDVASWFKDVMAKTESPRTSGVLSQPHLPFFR
# IRAK1 (human) = IRAK1 (human) (UniProt P51617)
# Sequence of IRAK1 (human) (P51617 whole entry, looked up): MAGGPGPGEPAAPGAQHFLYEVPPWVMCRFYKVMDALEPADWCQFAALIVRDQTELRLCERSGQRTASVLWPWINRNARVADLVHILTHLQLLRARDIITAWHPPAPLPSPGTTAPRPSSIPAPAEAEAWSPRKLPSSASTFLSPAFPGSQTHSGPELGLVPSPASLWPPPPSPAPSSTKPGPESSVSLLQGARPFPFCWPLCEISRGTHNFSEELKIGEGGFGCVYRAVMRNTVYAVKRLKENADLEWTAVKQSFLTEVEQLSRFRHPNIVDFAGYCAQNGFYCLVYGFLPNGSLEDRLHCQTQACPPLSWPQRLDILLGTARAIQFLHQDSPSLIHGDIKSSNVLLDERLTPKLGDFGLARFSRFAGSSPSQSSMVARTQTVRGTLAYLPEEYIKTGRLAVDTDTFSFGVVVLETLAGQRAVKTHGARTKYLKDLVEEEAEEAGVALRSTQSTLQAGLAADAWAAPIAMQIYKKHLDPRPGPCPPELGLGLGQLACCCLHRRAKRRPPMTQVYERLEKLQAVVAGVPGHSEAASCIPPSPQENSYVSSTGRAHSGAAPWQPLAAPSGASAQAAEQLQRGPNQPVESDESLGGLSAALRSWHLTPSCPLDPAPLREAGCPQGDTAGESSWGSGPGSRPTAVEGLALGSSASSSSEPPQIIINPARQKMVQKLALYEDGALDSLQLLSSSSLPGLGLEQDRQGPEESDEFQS
# GRK1 (human) = GRK1 (human) (UniProt Q15835)
# Sequence of GRK1 (human) (Q15835 whole entry, looked up): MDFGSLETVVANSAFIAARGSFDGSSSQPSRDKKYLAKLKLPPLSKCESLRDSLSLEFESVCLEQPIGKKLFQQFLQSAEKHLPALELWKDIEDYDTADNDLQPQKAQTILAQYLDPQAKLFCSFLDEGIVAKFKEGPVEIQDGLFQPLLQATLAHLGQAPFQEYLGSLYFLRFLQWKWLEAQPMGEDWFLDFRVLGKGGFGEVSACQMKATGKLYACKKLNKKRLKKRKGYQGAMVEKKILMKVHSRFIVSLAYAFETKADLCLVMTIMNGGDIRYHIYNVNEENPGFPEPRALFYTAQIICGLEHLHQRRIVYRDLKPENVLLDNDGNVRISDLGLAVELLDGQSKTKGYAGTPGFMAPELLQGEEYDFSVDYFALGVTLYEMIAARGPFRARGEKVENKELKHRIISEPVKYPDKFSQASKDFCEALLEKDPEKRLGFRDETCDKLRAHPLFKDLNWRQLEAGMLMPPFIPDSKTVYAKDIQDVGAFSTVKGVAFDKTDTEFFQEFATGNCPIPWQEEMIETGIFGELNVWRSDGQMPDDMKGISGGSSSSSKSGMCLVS
# [1] = system: ABL1 (human), P00519 [Y253F]
# RPS6KA4 KD2 (human) = RPS6KA4 KD2 (human) (UniProt O75676)
# FGFR4 (human) = FGFR4 (human) (UniProt P22455)
# MAP3K10 (human) = MAP3K10 (human) (UniProt Q02779)
Structure (SMILES),"kinase still bound, per cent of control (ROCK1 (human))","kinase still bound, per cent of control (PRKCI (human))","kinase still bound, per cent of control (GSK3B (human))","kinase still bound, per cent of control (CHEK2 (human))","kinase still bound, per cent of control (PAK1 (human))","kinase still bound, per cent of control (SRC (human))","kinase still bound, per cent of control (ANKK1 (human))","kinase still bound, per cent of control (PIP5K1C (human))","kinase still bound, per cent of control (SIK1 (human))","kinase still bound, per cent of control (PLK2 (human))","kinase still bound, per cent of control (STK17B (human))","kinase still bound, per cent of control (MERTK (human))","kinase still bound, per cent of control (ULK3 (human))","kinase still bound, per cent of control (STK24 (human))","kinase still bound, per cent of control (MATK (human))","kinase still bound, per cent of control (YES1 (human))","kinase still bound, per cent of control (PIK3CG (human))","kinase still bound, per cent of control (MYLK2 (human))","kinase still bound, per cent of control (GAK (human))","kinase still bound, per cent of control (CaMK1 (human))",other results
C=CC(=O)Nc1cc(-n2c(=O)ccc3cnc4ccc(-c5cn[nH]c5)cc4c32)ccc1C,94%,99%,84%,87%,100%,100%,82%,42%,77%,89%,100%,100%,97%,95%,100%,94%,4.2%,89%,18%,96%,"kinase still bound, per cent of control (AURKA (human)): 63%; kinase still bound, per cent of control (MAP4K3 (human)): 73%; kinase still bound, per cent of control (MAP3K15 (human)): 56%; kinase still bound, per cent of control (SYK (human)): 100%; kinase still bound, per cent of control (STK17A (human)): 100%; kinase still bound, per cent of control (CSF1R (human)): 90%; kinase still bound, per cent of control (MAPKAPK2 (human)): 100%; kinase still bound, per cent of control (CRK2 (P.falciparum)): 100%; kinase still bound, per cent of control (RPS6KA1 KD2 (human)): 94%; kinase still bound, per cent of control (MAP2K1 (human)): 69%; kinase still bound, per cent of control (EIF2AK2 (human)): 94%; kinase still bound, per cent of control (KIT (human)): 65%; kinase still bound, per cent of control (CSNK2A2 (human)): 1.2%; kinase still bound, per cent of control (MAP2K7 (human)): 14%; kinase still bound, per cent of control (IRAK1 (human)): 41%; kinase still bound, per cent of control (GRK1 (human)): 75%; kinase still bound, per cent of control [1]: 71%; kinase still bound, per cent of control (RPS6KA4 KD2 (human)): 94%; kinase still bound, per cent of control (FGFR4 (human)): 100%; kinase still bound, per cent of control (MAP3K10 (human)): 100%"
O=c1cc(N2CCOCC2)oc2c(-c3cccc4c3sc3ccccc34)cccc12,100%,100%,44%,100%,71%,90%,100%,61%,100%,100%,100%,100%,64%,86%,99%,94%,1.3%,100%,89%,91%,"kinase still bound, per cent of control (AURKA (human)): 98%; kinase still bound, per cent of control (MAP4K3 (human)): 76%; kinase still bound, per cent of control (MAP3K15 (human)): 100%; kinase still bound, per cent of control (SYK (human)): 100%; kinase still bound, per cent of control (STK17A (human)): 95%; kinase still bound, per cent of control (CSF1R (human)): 100%; kinase still bound, per cent of control (MAPKAPK2 (human)): 100%; kinase still bound, per cent of control (CRK2 (P.falciparum)): 100%; kinase still bound, per cent of control (RPS6KA1 KD2 (human)): 75%; kinase still bound, per cent of control (MAP2K1 (human)): 76%; kinase still bound, per cent of control (EIF2AK2 (human)): 72%; kinase still bound, per cent of control (KIT (human)): 80%; kinase still bound, per cent of control (CSNK2A2 (human)): 100%; kinase still bound, per cent of control (MAP2K7 (human)): 100%; kinase still bound, per cent of control (IRAK1 (human)): 96%; kinase still bound, per cent of control (GRK1 (human)): 100%; kinase still bound, per cent of control [1]: 100%; kinase still bound, per cent of control (RPS6KA4 KD2 (human)): 100%; kinase still bound, per cent of control (FGFR4 (human)): 99%; kinase still bound, per cent of control (MAP3K10 (human)): 100%"
C[C@@H](Oc1cc(-c2cnn(C3CCNCC3)c2)cnc1N)c1c(Cl)ccc(F)c1Cl,4%,35%,100%,100%,95%,0.55%,4.2%,63%,24%,73%,100%,2.1%,8.8%,44%,64%,17%,100%,73%,79%,37%,"kinase still bound, per cent of control (MAP3K15 (human)): 73%; kinase still bound, per cent of control (STK17A (human)): 100%; kinase still bound, per cent of control (CSF1R (human)): 0.15%; kinase still bound, per cent of control (MAPKAPK2 (human)): 100%; kinase still bound, per cent of control (CRK2 (P.falciparum)): 95%; kinase still bound, per cent of control (RPS6KA1 KD2 (human)): 54%; kinase still bound, per cent of control (MAP2K1 (human)): 64%; kinase still bound, per cent of control (EIF2AK2 (human)): 43%; kinase still bound, per cent of control (KIT (human)): 43%; kinase still bound, per cent of control (CSNK2A2 (human)): 55%; kinase still bound, per cent of control (MAP2K7 (human)): 83%; kinase still bound, per cent of control (IRAK1 (human)): 0%; kinase still bound, per cent of control (GRK1 (human)): 92%; kinase still bound, per cent of control (RPS6KA4 KD2 (human)): 50%; kinase still bound, per cent of control (FGFR4 (human)): 98%; kinase still bound, per cent of control (MAP3K10 (human)): 79%"
